# Structures can show the parent of a compound that is named as a salt.
# Target: T1, PDE4B (human recombinant) (Homo sapiens, UniProt Q07343)
# T1 construct: made in house
# Assay: PDE4B inhibition, fluorescence polarisation (FP) and/or SPA assay
# Assay type: biochemical
# Conditions: n=1 or average of 2 or more readings, accuracy ±about 0.5 log unit, read-out: PDE4B pIC50 (generally in FP assay) (±about 0.5) (converted)
# Source text: Human recombinant PDE4B, in particular the 2B splice variant thereof (HSPDE4B2B), is disclosed in WO 94/20079 and also M. M. McLaughlin et al., “A low Km, rolipram-sensitive, cAMP-specific phosphodiesterase from human brain: cloning and expression of cDNA, biochemical characterisation of recombinant protein, and tissue distribution of mRNA”, J. Biol. Chem., 1993, 268, 6470-6476. For example, in Example 1 of WO 94/20079, human recombinant PDE4B is described as being expressed in the PDE-deficient yeast Saccharomyces cerevisiae strain GL62, e.g. after induction by addition of 150 uM CuSO4, and 100,000×g supernatant fractions of yeast cell lysates are described for use in the harvesting of PDE4B enzyme.
# The ability of compounds to inhibit catalytic activity at PDE4B or 4D (human recombinant), PDE3 (from bovine aorta), PDE5 (human recombinant) or PDE6 (from bovine retina) can optionally be determined by Scintillation Proximity Assay (SPA) in a 96-well format.
# Test compounds (as a solution in DMSO, preferably about 2 microliter (ul) volume of DMSO solution) are preincubated at ambient temperature (room temperature, e.g. 19-23° C.) in Wallac Isoplates (code 1450-514) with PDE enzyme in 50 mM Tris-HCl buffer pH 7.5, 8.3 mM MgCl2, 1.7 mM EGTA, 0.05% (w/v) bovine serum albumin for 10-30 minutes (usually 30 minutes). The enzyme concentration is adjusted so that no more than 20% hydrolysis of the substrate defined below occurs in control wells without compound, during the incubation. For the PDE3, PDE4B and PDE4D assays, [5′,8-3H]Adenosine 3′,5′-cyclic phosphate (Amersham Pharmacia Biotech, code TRK.559; or Amersham Biosciences UK Ltd, Pollards Wood, Chalfont St Giles, Buckinghamshire HP8 4SP, UK) is added to give 0.05 uCi per well and about 10 nM final concentration. For the PDE5 and PDE6 assays, [8-^3H]Guanosine 3′,5′-cyclic phosphate (Amersham Pharmacia Biotech, code TRK.392) is added to give 0.05 uCi per well and about 36 nM final concentration. Plates containing assay mixture, preferably approx. 100 ul volume of assay mixture, are mixed on an orbital shaker for 5 minutes and incubated at ambient temperature for 1 hour. Phosphodiesterase SPA beads (Amersham Pharmacia Biotech, code RPNQ 0150) are added (about 1 mg per well) to terminate the assay. Plates are sealed and shaken and allowed to stand at ambient temperature for 35 minutes to 1 hour (preferably 35 minutes) to allow the beads to settle. Bound radioactive product is measured using a WALLAC TRILUX 1450 Microbeta scintillation counter. For inhibition curves, 10 concentrations (e.g. 1.5 nM-30 uM) of each compound are assayed. Curves are analysed using ActivityBase and XLfit (ID Business Solutions Limited, 2 Ocean Court, Surrey Research Park, Guildford, Surrey GU2 7QB, United Kingdom) Results are expressed as pIC50 values.
# The ability of compounds to inhibit catalytic activity at PDE4B (human recombinant) or PDE4D (human recombinant) can optionally be determined by IMAP Fluorescence Polarisation (FP) assay (IMAP Explorer kit, available from Molecular Devices Corporation, Sunnydale, Calif., USA; Molecular Devices code: R8062) in 384-well format.
# The IMAP FP assay is able to measure PDE activity in an homogenous, non-radioactive assay format. The FP assay uses the ability of immobilised trivalent metal cations, coated onto nanoparticles (tiny beads), to bind the phosphate group of FI-AMP that is produced on the hydrolysis of fluorescein-labelled (FI) cyclic adenosine mono-phosphate (FI-cAMP) to the non-cyclic FI-AMP form. […] Binding of FI-AMP product to the beads (coated with the immobilised trivalent cations) slows the rotation of the bound FI-AMP and leads to an increase in the fluorescence polarisation ratio of parallel to perpendicular light. Inhibition of the PDE reduces/inhibits this signal increase. […]
# T1 sequence (Q07343 1-564 isoform Q07343-2): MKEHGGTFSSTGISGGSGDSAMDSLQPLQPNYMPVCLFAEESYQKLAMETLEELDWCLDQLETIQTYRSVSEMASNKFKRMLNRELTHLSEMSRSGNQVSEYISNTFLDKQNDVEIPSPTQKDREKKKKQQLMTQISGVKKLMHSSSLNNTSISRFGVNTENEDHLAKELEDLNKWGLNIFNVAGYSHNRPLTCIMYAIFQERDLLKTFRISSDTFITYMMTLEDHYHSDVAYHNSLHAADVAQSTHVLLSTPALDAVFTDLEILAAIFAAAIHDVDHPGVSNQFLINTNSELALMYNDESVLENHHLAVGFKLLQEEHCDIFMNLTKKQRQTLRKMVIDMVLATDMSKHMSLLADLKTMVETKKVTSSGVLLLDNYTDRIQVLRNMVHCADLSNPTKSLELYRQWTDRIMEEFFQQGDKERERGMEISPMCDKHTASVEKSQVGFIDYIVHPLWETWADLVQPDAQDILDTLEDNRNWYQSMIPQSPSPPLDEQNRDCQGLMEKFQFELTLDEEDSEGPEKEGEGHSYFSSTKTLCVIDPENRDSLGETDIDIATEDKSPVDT
row,IC50 [nM],Structure (SMILES)
1,~0.1,"CCc1nc2c(cnn2CC)c(NC2CCOCC2)c1CNC(=O)c1cccc(-c2cccc(C(=O)NCc3c(CC)nc4c(cnn4CC)c3NC3CCOCC3)c2)c1 [Example 10, N,N′-bis{[1,6-diethyl-4-(tetrahydro-2H-pyran-4-ylamino)-1H-pyrazolo[3,4-b]pyridin-5-yl]methyl}-3,3′-biphenyldicarboxamide]"
2,0.0158 to 0.1,"CCc1nc2c(cnn2CC)c(NC2CCN(C(N)=O)CC2)c1CNC(=O)C1CCC(C(=O)NCc2c(CC)nc3c(cnn3CC)c2NC2CCN(C(N)=O)CC2)C1 (stereo not shown) [Example 20, N,N′-bis[(4-{[1-(aminocarbonyl)-4-piperidinyl]amino}-1,6-diethyl-1H-pyrazolo[3,4-b]pyridin-5-yl)methyl]-1,3-cyclopentanedicarboxamide trifluoroacetate]"
3,0.126 to 1,"CCc1nc2c(cnn2CC)c(NC2CCOCC2)c1CNC(=O)c1ccc(C(=O)NCc2c(CC)nc3c(cnn3CC)c2NC2CCOCC2)cc1 [Example 22, N,N′-bis{[1,6-diethyl-4-(tetrahydro-2H-pyran-4-ylamino)-1H-pyrazolo[3,4-b]pyridin-5-yl]methyl}-1,4-benzenedicarboxamide]"
4,0.126 to 1,"CCc1nc2c(cnn2CC)c(NC2CCOCC2)c1CNC(=O)c1ccc(Oc2ccc(C(=O)NCc3c(CC)nc4c(cnn4CC)c3NC3CCOCC3)cc2)cc1 [Example 24, 4,4′-oxybis(N-{[1,6-diethyl-4-(tetrahydro-2H-pyran-4-ylamino)-1H-pyrazolo[3,4-b]pyridin-5-yl]methyl}benzamide)]"
5,0.0158 to 0.1,"CCc1nc2c(cnn2CC)c(NC2CCN(C(N)=O)CC2)c1CNC(=O)c1ccc(C(=O)NCc2c(CC)nc3c(cnn3CC)c2NC2CCN(C(N)=O)CC2)cc1 [Example 25, N,N′-bis[(4-{[1-(aminocarbonyl)-4-piperidinyl]amino}-1,6-diethyl-1H-pyrazolo[3,4-b]pyridin-5-yl)methyl]-1,4-benzenedicarboxamide]"
6,0.0158 to 0.1,"CCc1nc2c(cnn2CC)c(NC2CCN(C(N)=O)CC2)c1CNC(=O)c1ccc(-c2ccc(C(=O)NCc3c(CC)nc4c(cnn4CC)c3NC3CCN(C(N)=O)CC3)cc2)cc1 [Example 26, N,N′-bis[(4-{[1-(aminocarbonyl)-4-piperidinyl]amino}-1,6-diethyl-1H-pyrazolo[3,4-b]pyridin-5-yl)methyl]-4,4′-biphenyldicarboxamide]"
7,0.0158 to 0.1,"CCc1nc2c(cnn2CC)c(NC2CCN(C(N)=O)CC2)c1CNC(=O)c1ccc(Oc2ccc(C(=O)NCc3c(CC)nc4c(cnn4CC)c3NC3CCN(C(N)=O)CC3)cc2)cc1 [Example 27, 4,4′-{oxybis[benzene-4,1-diyl(oxomethanediyl)iminomethanediyl(1,6-diethyl-1H-pyrazolo[3,4-b]pyridine-5,4-diyl)imino]}di(1-piperidinecarboxamide)]"
8,~0.0251,"CCn1ncc2c(NC3CCOCC3)c(CNC(=O)c3ccc(-c4ccc(C(=O)NCc5c(C)nc6c(cnn6CC)c5NC5CCOCC5)cc4)cc3)c(C)nc21 [Example 28, N,N′-bis{[1-ethyl-6-methyl-4-(tetrahydro-2H-pyran-4-ylamino)-1H-pyrazolo[3,4-b]pyridin-5-yl]methyl}-4,4′-biphenyldicarboxamide]"
9,0.0158 to 0.1,"CCc1nc2c(cnn2CC)c(NC2CCOCC2)c1CNC(=O)c1ccnc(-c2cc(C(=O)NCc3c(CC)nc4c(cnn4CC)c3NC3CCOCC3)ccn2)c1 [Example 31, N,N′-bis{[1,6-diethyl-4-(tetrahydro-2H-pyran-4-ylamino)-1H-pyrazolo[3,4-b]pyridin-5-yl]methyl}-2,2′-bipyridine-4,4′-dicarboxamide]"
10,0.126 to 1,"CCc1nc2c(cnn2CC)c(NC2CCOCC2)c1CNC(=O)c1cnc(C(=O)NCc2c(CC)nc3c(cnn3CC)c2NC2CCOCC2)cn1 [Example 32, N,N′-bis{[1,6-diethyl-4-(tetrahydro-2H-pyran-4-ylamino)-1H-pyrazolo[3,4-b]pyridin-5-yl]methyl}-2,5-pyrazinedicarboxamide]"
11,0.126 to 1,"CCc1nc2c(cnn2CC)c(NC2CCOCC2)c1CNC(=O)c1ccc(-c2ccc(C(=O)NCc3c(CC)nc4c(cnn4CC)c3NC3CCOCC3)cn2)nc1 [Example 34, N,N′-bis{[1,6-diethyl-4-(tetrahydro-2H-pyran-4-ylamino)-1H-pyrazolo[3,4-b]pyridin-5-yl]methyl}-2,2′-bipyridine-5,5′-dicarboxamide]"

# System: TNF-α production in human PBMC (peripheral blood mononuclear cells)
# Assay: Inhibition of TNF-alpha production in human PBMC (MSD technology)
# Assay type: cell-based
# Conditions: inhibition of LPS-stimulated TNF-α production in human PBMC; measured and/or mean; read-out: PBMC pIC50 (MSD assay) (converted)
# Experimental: A 96-well plate (96 MicroWell™ Plates Nunclon™Δ-High Flange Design, Fisher Scientific UK, Bishop Meadow Road, Loughborough LE 11 5 RG, Leicestershire, UK) is prepared by initially adding to column 1 ca. 10 mM of test compound dissolved in DMSO. […] The compound is further diluted with DMSO into columns 2 to 9 by 8 successive 3fold dilutions using the Biomek® FX Laboratory Automation Workstation (Beckman Coulter, Inc., 4300 N. Harbor Boulevard, P.O. Box 3100, Fullerton, Calif. 92834-3100 USA). Column 10 is used as a DMSO negative control (High Signal, 0% response), whilst column 11, which contains 10 mM of the PDE4 inhibitor roflumilast, is used as a positive control (Low Signal, 100% response). About 1 μl (about 1 ul) of compound is transferred to the compound plate using the Biomek® FX.
# PBMC cells (peripheral blood mononuclear cells) are prepared from heparinised human blood (using 1% v/v Heparin Sodium 10001 U/ml Endotoxin Free, Leo Laboratories Ltd., Cashel Road, Dublin 12. Ireland, Cat No: PL0043/0149) from normal volunteers using the Accuspin™ System-Histopaque®-1077 essentially (Sigma-Aldrich Company Ltd., The Old Brickyard New Rd, Gillingham Dorset SP8 4XT). About 20 ml of blood is overlaid onto 15 ml Histopaque® in Accuspin™ tubes. The tube is then centrifuged at about 800 g for ca. 20 minutes. The cells are collected from the interface, washed by centrifugation (ca. 1300 g, ca. 10 minutes) and resuspended in RPMI1640 medium (Low endotoxin RPMI1640 medium, Cat No: 31870-025, Invitrogen Corporation Invitrogen Ltd, 3 Fountain Drive, Inchinnan Business Park, Paisley PA4 9RF, UK) containing 10% foetal calf serum, 1% L-glutamine (Invitrogen Corporation, Cat No: 25030024) and 1% penicillin/streptomycin (Invitrogen Corporation, Cat No: 15140-122). Viable cells are counted by trypan blue staining and diluted to 1×10^6 viable cells/ml. About 50 μl (about 50 ul) of diluted cells and about 75 μl (about 75 ul) of LPS (ca. 1 ng/ml final; Sigma Cat No: L-6386) are added to the compound plate, which is then incubated at 37° C., 5% CO2, for 20 hours.
# The supernatant is removed and the concentrations of TNF-α are determined by electrochemiluminescence assay using the Meso Scale Discovery (MSD) technology (Meso Scale Discovery, 9238 Gaither Road, Gaithersburg, Md. 20877, USA). See the “TNF-α (TNF-alpha) MSD Assay” described below for typical details.
# Using the Biomek FX, 25 μl (25 ul) of MSD Human Serum Cytokine Assay Diluent (Meso Scale Discovery, 9238 Gaither Road, Gaithersburg, Md. 20877) is added to a 96-well High-Bind MSD plate pre-coated with anti-hTNF alpha capture antibody (MA6000) and then incubated for 24 hours at 4° C. to prevent non-specific binding. […]
# For the PBMC assay, about 20 μl (ul) of diluted sulfo-TAG antibody (ca. 1 μg/ml final) is added to each well, and the plates/wells are shaken at room temperature for 2 hours. Finally, about 90 μl (ul) of MSD Read Buffer P (diluted to 2.5 times with distilled water) is added and the plates are read on a MSD Sector 6000.
# Data analysis is performed with ActivityBase/XC50 module (ID Business Solutions Ltd., 2 Occam Court, Surrey Research Park, Guildford, Surrey, GU2 7QB UK). Data are normalized and expressed as % inhibition using the formula 100*((U-C1)/(C2-C1)) where U is the unknown value, C1 is the average of the high signal (0%) control wells (column 10), and C2 is the average of the low signal (100%) control wells (column 11). […]
row,Structure (SMILES),IC50 [nM]
1,"CCc1nc2c(cnn2CC)c(NC2CCOCC2)c1CNC(=O)c1cccc(-c2cccc(C(=O)NCc3c(CC)nc4c(cnn4CC)c3NC3CCOCC3)c2)c1 [Example 10, N,N′-bis{[1,6-diethyl-4-(tetrahydro-2H-pyran-4-ylamino)-1H-pyrazolo[3,4-b]pyridin-5-yl]methyl}-3,3′-biphenyldicarboxamide]",~0.02
2,"CCn1ncc2c(NC3CCOCC3)c(CNC(=O)c3ccc(-c4ccc(C(=O)NCc5c(C)nc6c(cnn6CC)c5NC5CCOCC5)cc4)cc3)c(C)nc21 [Example 28, N,N′-bis{[1-ethyl-6-methyl-4-(tetrahydro-2H-pyran-4-ylamino)-1H-pyrazolo[3,4-b]pyridin-5-yl]methyl}-4,4′-biphenyldicarboxamide]",~0.126
